The experiment has as its target T1, gastrin (CCK2) receptors (Rattus norvegicus, UniProt P30553).
T1 construct: The stomach was excised and flushed with ca. 1 ml of unbuffered physiological saline solution; from tissue; host or cells: isolated whole stomach of immature rats (ca. 21 days old)
T1 sequence (P30553 1-452): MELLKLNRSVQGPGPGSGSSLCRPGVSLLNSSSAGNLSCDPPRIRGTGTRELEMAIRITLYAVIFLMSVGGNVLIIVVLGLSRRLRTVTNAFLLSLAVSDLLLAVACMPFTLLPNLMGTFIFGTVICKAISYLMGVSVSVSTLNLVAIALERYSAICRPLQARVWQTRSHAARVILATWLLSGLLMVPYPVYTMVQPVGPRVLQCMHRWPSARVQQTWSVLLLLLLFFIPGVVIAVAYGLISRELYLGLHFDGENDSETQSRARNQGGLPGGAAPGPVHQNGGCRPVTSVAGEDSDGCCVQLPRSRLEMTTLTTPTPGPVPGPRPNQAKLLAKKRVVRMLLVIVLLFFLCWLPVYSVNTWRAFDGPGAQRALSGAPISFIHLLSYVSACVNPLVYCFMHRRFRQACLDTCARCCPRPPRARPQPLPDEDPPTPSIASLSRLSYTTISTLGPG
The experiment is described as follows: gastrin (CCK2) antagonist activity in an immature rat stomach assay. Particulars: pentagastrin dose-response curves, acid secretion, read-out: pKB rat stomach (converted). The procedure: The compounds of the examples were tested for gastrin (CCK2) antagonist activity in an immature rat stomach assay. The procedure was as follows:
The oesophagus of immature rats (33-50 g, ca. 21 days old) was ligated at the level of the cardiac sphincter and the duodenal sphincter was cannulated. The stomach was excised and flushed with ca. 1 ml of unbuffered physiological saline solution. The fundus was punctured and cannulated. A further 4-5 ml of unbuffered solution was flushed through the stomach to ensure the preparation was not leaking. […] The stomach was continuously perfused at a rate of 1 ml min^−1 with unbuffered solution gassed with 100% O2 with the perfusate passing over an internally referenced pH-electrode fixed 12 cm above the stomach.
After 120 min of stabilisation the drugs were added directly to the serosal solution in the organ bath and after a further 60 min cumulative pentagastrin dose-response curves were started.
Regarding `CC(C)(C)C(=O)CN1C(=O)N(CC(=O)Nc2cccc(C(=O)O)c2)N=C(C23CC4CC(CC(C4)C2)C3)c2ccccc21` [Example 54, 3-{2-[5-Adamantan-1-yl-1-(3,3-dimethyl-2-oxo-butyl)2-oxo-1,2-dihydro-3H-1,3,4-benzotriazepin-3-yl]-acetylamino}-benzoic acid], the Kb is 17 nM. The result for `Cc1nc(-c2cccc(NC(=O)CN3N=C(C4CCCCC4)c4ccccc4N(CC(=O)C(C)(C)C)C3=O)c2)cs1` [Example 107] reads 3.31 nM; that for `CC(C)(CO)C(=O)CN1C(=O)N(CC(=O)Nc2cccc(CC(=O)O)c2)N=C(C2CCCCC2)c2ccccc21` [Example 110, (3-{2-[5-Cyclohexyl-1-(4-hydroxy-3,3-dimethyl-2-oxo-butyl)-2-oxo-1,2-dihydro-3H-1,3,4-benzotriazepin-3-yl]-acetylamino}-phenyl)-acetic acid], 93.3 nM. Regarding `Cc1ccc2c(c1)N(CC(=O)C(C)(C)C)C(=O)N(CC(=O)Nc1cccc(C(=O)O)c1)N=C2C1CCCCC1` [Example 112, 3-{2-[5-Cyclohexyl-1-(3,3-dimethyl-2-oxo-butyl)-8-methyl-2-oxo-1,2-dihydro-3H-1,3,4-benzotriazepin-3-yl]-acetylamino}-benzoic acid], the Kb was 40.7 nM. With `CNc1cc(NC(=O)CN2N=C(C3CCCCC3)c3ccccc3N(CC(=O)C(C)(C)C)C2=O)cc(C(=O)OC)c1` [Example 74, 3-{2-[5-Cyclohexyl-1-(3,3-dimethyl-2-oxo-butyl)-2-oxo-1,2-dihydro-3H-1,3,4-benzotriazepin-3-yl]-acetylamino}-5-methylamino-benzoic acid methyl ester], the Kb is 372 nM. The result for `CNc1cccc(NC(=O)CN2N=C(C3CCCCC3)c3ccccc3N(CC(=O)N3CCN(C)CC3)C2=O)c1` [Example 72, 2-{5-Cyclohexyl-1-[2-(4-methyl-piperazin-1-yl)-2-oxo-ethyl]-2-oxo-1,2-dihydro-3H-1,3,4-benzotriazepin-3-yl}-N-(3-methylamino-phenyl)-acetamide] reads 263 nM; that for `C=C(CN1C(=O)N(CC(=O)Nc2cccc(CC(=O)O)c2)N=C(C2CCCCC2)c2ccccc21)C(C)(C)C` [Example 152, (3-{2-[1-(2-tert-Butyl-allyl)-5-cyclohexyl-2-oxo-1,2-dihydro-3H-1,3,4-benzotriazepin-3-yl]-acetylamino}-phenyl)-acetic acid], 50.1 nM. The result for `Cc1nc(-c2cccc(NC(=O)CN3N=C(C4CCCCC4)c4ccccc4N(CC(=O)C4CCCC4)C3=O)c2)cs1` [Example 136, 2-[5-Cyclohexyl-1-(2-cyclopentyl-2-oxo-ethyl)-2-oxo-1,2-dihydro-3H-1,3,4-benzotriazepin-3-yl]-N-[3-(2-methyl-thiazol-4-yl)-phenyl]-acetamide] reads 6.03 nM; that for `CC(C)(C)C(=O)CN1C(=O)N(CC(=O)Nc2cccc(C(=O)O)c2)N=C(C2CCCCC2)c2c(F)cccc21` [Example 113, 3-{2-[5-Cyclohexyl-1-(3,3-dimethyl-2-oxo-butyl)-6-fluoro-2-oxo-1,2-dihydro-3H-1,3,4-benzotriazepin-3-yl]-acetylamino}-benzoic acid], 6.03 nM.

For `CC(C)(C)C(=O)CN1C(=O)N(CC(=O)Nc2cccc(C(=O)O)c2)N=C(C2CCCCC2)c2ccccc21` [Example 2, 3-{2-[5-Cyclohexyl-1-(3,3-dimethyl-2-oxo-butyl)-2-oxo-1,2-dihydro-3H-1,3,4-benzotriazepin-3-yl]-acetylamino}-benzoic acid], the Kb is 0.661 nM. The result for `CC(C)(C)C(=O)CN1C(=O)N(CC(=O)Nc2cccc(-c3nn[nH]n3)c2)N=C(C2CCCC2)c2ccccc21` [Example 10, 2-[5-Cyclopentyl-1-(3,3-dimethyl-2-oxo-butyl)-2-oxo-1,2-dihydro-3H-1,3,4-benzotriazepin-3-yl]-[3-(2H-tetrazol-5-yl)-phenyl]-acetamide] reads 89.1 nM. The result for `Cc1cc(NC(=O)CN2N=C(C3CCCCC3)c3ccccc3N(CC(=O)C(C)(C)C)C2=O)cc(C(=O)O)c1` [Example 91, 3-{2-[5-Cyclohexyl-1-(3,3-dimethyl-2-oxo-butyl)-2-oxo-1,2-dihydro-3H-1,3,4-benzotriazepin-3-yl]-acetylamino}-5-methyl-benzoic acid] reads 40.7 nM; that for `O=C(CN1N=C(C2CCCCC2)c2ccccc2N(CC(=O)C2CCCC2)C1=O)Nc1cccc(-c2ccc(C(=O)O)o2)c1` [Example 149], 1.1 nM. The result for `CC(C)(C)C(=O)CN1C(=O)N(CC(=O)Nc2cccc(/C=C3\SC(=O)NC3=O)c2)N=C(C2CCCCC2)c2ccccc21` [Example 147, 2-[5-Cyclohexyl-1-(3,3-dimethyl-2-oxo-butyl)-2-oxo-1,2-dihydro-3H-1,3,4-benzotriazepin-3-yl]-N-[3-(2,4-dioxo-thiazolidin-5-ylidenemethyl)-phenyl]-acetamide] reads 8.32 nM; that for `CC(C)(C)C(=O)CN1C(=O)N(CC(=O)Nc2ccc3c(c2)N(CC(=O)O)CC3)N=C(C2CCCCC2)c2ccccc21` [Example 34, (6-{2-[5-Cyclohexyl-1-(3,3-dimethyl-2-oxo-butyl)-2-oxo-1,2-dihydro-3H-1,3,4-benzotriazepin-3-yl]-acetylamino}-2,3-dihydro-indol-1-yl)-acetic acid], 15.8 nM. Regarding `CC(C)(C)C(=O)CN1C(=O)N(CC(=O)Nc2cccc(-c3csc(C(=O)O)n3)c2)N=C(C2CCCCC2)c2ccccc21` [Example 108, 4-(3-{2-[5-Cyclohexyl-1-(3,3-dimethyl-2-oxo-butyl)-2-oxo-1,2-dihydro-3H-1,3,4-benzotriazepin-3-yl]-acetylamino}-phenyl)-thiazole-2-carboxylic acid], the Kb was 37.2 nM. The result for `CNCCN(C)c1cccc(NC(=O)CN2N=C(C3CCCCC3)c3ccccc3N(CC(=O)C(C)(C)C)C2=O)c1` [Example 143, 2-[5-Cyclohexyl-1-(3,3-dimethyl-2-oxo-butyl)-2-oxo-1,2-dihydro-3H-1,3,4-benzotriazepin-3-yl]-N-{3-[methyl-(2-methylamino-ethyl)-amino]-phenyl}-acetamide] reads 117 nM. The result for `CC(C)(C)C(=O)CN1C(=O)N(CC(=O)Nc2cccc(CSC(=N)N)c2)N=C(C2CCCCC2)c2ccccc21` [Example 49, N-(3-Carbamimidoylsulfanylmethyl-phenyl)-2-[5-cyclohexyl-1-(3,3-dimethyl-2-oxo-butyl)-2-oxo-1,2-dihydro-3H-1,3,4-benzotriazepin-3-yl]-acetamide] reads 100 nM; that for `CC(C)(C)C(=O)CN1C(=O)N(CC(=O)Nc2cccc(CC(=O)O)c2)N=C(C2CCCCC2)c2ccccc21` [Example 29, (3-{2-[5-Cyclohexyl-1-(3,3-dimethyl-2-oxo-butyl)-2-oxo-1,2-dihydro-3H-1,3,4-benzotriazepin-3-yl]-acetylamino}-phenyl)-acetic acid], 61.7 nM. The result for `CC(C)(C)C(=O)CN1C(=O)N(CC(=O)Nc2cccc(-c3ccc(C(=O)O)cc3)c2)N=C(C2CCCCC2)c2ccccc21` [Example 146, 3′-{2-[5-Cyclohexyl-1-(3,3-dimethyl-2-oxo-butyl)-2-oxo-1,2-dihydro-3H-1,3,4-benzotriazepin-3-yl]-acetylamino}-biphenyl-4-carboxylic acid] reads 7.08 nM. As for `Cc1cccc(NNC(=O)CN2N=C(C3CCCCC3)c3ccccc3N(CC(=O)C(C)(C)C)C2=O)c1` [Example 46, [5-Cyclohexyl-1-(3,3-dimethyl-2-oxo-butyl)-2-oxo-1,2-dihydro-3H-1,3,4-benzotriazepin-3-yl]-acetic acid N′-m-tolyl-hydrazide], the Kb is 174 nM. On to `CC(C)(C)C(=O)CN1C(=O)N(CC(=O)Nc2cccc(CSCC(=O)O)c2)N=C(C2CCCCC2)c2ccccc21` [Example 71, (3-{2-[5-Cyclohexyl-1-(3,3-dimethyl-2-oxo-butyl)-2-oxo-1,2-dihydro-3H-1,3,4-benzotriazepin-3-yl]-acetylamino}-benzylsulfanyl)-acetic acid], for which the Kb is 3.8 nM. As to `O=C(CN1N=C(C2CCCCC2)c2ccccc2N(CC(=O)C2CCCC2)C1=O)Nc1cccc(-c2nnn[nH]2)c1` [Example 125, 2-[5-Cyclohexyl-1-(2-cyclopentyl-2-oxo-ethyl)-2-oxo-1,2-dihydro-3H-1,3,4-benzotriazepin-3-yl]-N-[3-(2H-tetrazol-5-yl)-phenyl]-acetamide], the Kb is 4.37 nM. The result for `O=C(CN1N=C(C2CCCCC2)c2ccccc2N(CC(=O)N2CCOCC2)C1=O)Nc1cccc(C(=O)O)c1` [Example 68, 3-{2-[5-Cyclohexyl-1-(2-morpholin-4-yl-2-oxo-ethyl)-2-oxo-1,2-dihydro-3H-1,3,4-benzotriazepin-3-yl]-acetylamino}-benzoic acid] reads 81.3 nM.
